Results published in article PMC5620609 (Pharmaceuticals, 2017).

Experiments:
HT29 = assay: NCI 60 cell line panel: HT29; assay type: cell-based, human; conditions: Colon cancer, TP53 null/mutant
Description: (§1) Details of the NCI 60 One Dose Screen are well known and available online.

OVCAR-3 = assay: NCI 60 cell line panel: OVCAR-3; assay type: cell-based, human; conditions: Ovarian cancer, TP53 null/mutant
Description: as §1

A498 = assay: NCI 60 cell line panel: A498; assay type: cell-based, human; conditions: Renal cancer, TP53 wild type
Description: as §1

MDA-MB-231 = assay: NCI 60 cell line panel: MDA-MB-231; assay type: cell-based, human; conditions: Breast cancer, TP53 null/mutant
Description: as §1

UO-31 = assay: NCI 60 cell line panel: UO-31; assay type: cell-based, human; conditions: Renal cancer, TP53 wild type
Description: as §1

NCI-H322M = assay: NCI 60 cell line panel: NCI-H322M; assay type: cell-based, human; conditions: NSCL, TP53 null/mutant
Description: as §1

PC-3 = assay: NCI 60 cell line panel: PC-3; assay type: cell-based, human; conditions: Prostate cancer, TP53 null/mutant
Description: as §1

OVCAR-4 = assay: NCI 60 cell line panel: OVCAR-4; assay type: cell-based, human; conditions: Ovarian cancer, TP53 null/mutant
Description: as §1

HOP-92 = assay: NCI 60 cell line panel: HOP-92; assay type: cell-based, human; conditions: NSCL, TP53 null/mutant
Description: as §1

OVCAR-5 = assay: NCI 60 cell line panel: OVCAR-5; assay type: cell-based, human; conditions: Ovarian cancer, TP53 wild type
Description: as §1

ACHN = assay: NCI 60 cell line panel: ACHN; assay type: cell-based, human; conditions: Renal cancer, TP53 wild type
Description: as §1

OVCAR-8 = assay: NCI 60 cell line panel: OVCAR-8; assay type: cell-based, human; conditions: Ovarian cancer, TP53 null/mutant
Description: as §1

HCC-2998 = assay: NCI 60 cell line panel: HCC-2998; assay type: cell-based, human; conditions: Colon cancer, TP53 null/mutant
Description: as §1

CCRF-CEM = assay: NCI 60 cell line panel: CCRF-CEM; assay type: cell-based, human; conditions: Leukemia, TP53 null/mutant
Description: as §1

A549/ATCC = assay: NCI 60 cell line panel: A549/ATCC; assay type: cell-based, human; conditions: NSCL, TP53 wild type
Description: as §1

NCI 60 cell line panel = assay: NCI 60 cell line panel, allocation of cell lines by growth inhibition at 10 µM; assay type: cell-based, human
Description: as §1

SK-OV-3 = assay: NCI 60 cell line panel: SK-OV-3; assay type: cell-based, human; conditions: Ovarian cancer, TP53 null/mutant
Description: as §1

THP-1 cells = assay: Morphology (Giemsa stain) of THP-1 cells; assay type: cell-based, human; conditions: 6 days following exposure
HCT-15 = assay: NCI 60 cell line panel: HCT-15; assay type: cell-based, human; conditions: Colon cancer, TP53 null/mutant
Description: as §1

[1] = tested on: human colon cancer cell line HCT-116; assay: In vitro growth inhibition (CellTiter-Glo), HCT-116; assay type: cell-based; conditions: HCT 116 TP53(-/-), read-out: GI50 (concentration of drug that inhibited 50% of cell growth), 72 h exposure
Protocol: Cells were grown in an appropriate medium for the cell line of interest; 96 well plates of each cell line were seeded with 5000 cells per well and left overnight. Drug exposed cells were incubated at 37 °C for 72 h. At the end of the 72 h exposure period, plates were removed for the CellTiter-Glo® assay. Luminescence was recorded on a Synergy 4.0. Assays were performed in triplicate.

SK-MEL-2 = assay: NCI 60 cell line panel: SK-MEL-2; assay type: cell-based, human; conditions: Melanoma, TP53 null/mutant
Description: as §1

MOLT-4 = assay: NCI 60 cell line panel: MOLT-4; assay type: cell-based, human; conditions: Leukemia, TP53 null/mutant
Description: as §1

LOX IMVI = assay: NCI 60 cell line panel: LOX IMVI; assay type: cell-based, human; conditions: Melanoma, TP53 wild type
Description: as §1

M14 = assay: NCI 60 cell line panel: M14; assay type: cell-based, human; conditions: Melanoma, TP53 null/mutant
Description: as §1

NCI-H522 = assay: NCI 60 cell line panel: NCI-H522; assay type: cell-based, human; conditions: NSCL, TP53 null/mutant
Description: as §1

[2] = nude mice; same schedule
Protocol: (§2) Three mice were placed in a dose group on the first day of treatment (Day 1). […] Animals were observed daily for mortality and moribundity. Body weights were measured daily starting on day 1.

786-0 = assay: NCI 60 cell line panel: 786-0; assay type: cell-based, human; conditions: Renal cancer, TP53 null/mutant
Description: as §1

BT-549 = assay: NCI 60 cell line panel: BT-549; assay type: cell-based, human; conditions: Breast cancer, TP53 null/mutant
Description: as §1

SNB-75 = assay: NCI 60 cell line panel: SNB-75; assay type: cell-based, human; conditions: CNS cancer, TP53 null/mutant
Description: as §1

MDA-MB-435 = assay: NCI 60 cell line panel: MDA-MB-435; assay type: cell-based, human; conditions: Melanoma, TP53 null/mutant
Description: as §1

NCI/ADR-RES = assay: NCI 60 cell line panel: NCI/ADR-RES; assay type: cell-based, human; conditions: Ovarian cancer, TP53 null/mutant
Description: as §1

SNB-19 = assay: NCI 60 cell line panel: SNB-19; assay type: cell-based, human; conditions: CNS cancer, TP53 null/mutant
Description: as §1

SF-295 = assay: NCI 60 cell line panel: SF-295; assay type: cell-based, human; conditions: CNS cancer, TP53 null/mutant
Description: as §1

in vivo = conditions: nude, mouse, iv
Protocol: as §2

CAKI-1 = assay: NCI 60 cell line panel: CAKI-1; assay type: cell-based, human; conditions: Renal cancer, TP53 wild type
Description: as §1

SW-620 = assay: NCI 60 cell line panel: SW-620; assay type: cell-based, human; conditions: Colon cancer, TP53 null/mutant
Description: as §1

total DNMT = assay: Total DNMT inhibition, colorimetric assay in HCT-116 cells; assay type: cell-based, human; conditions: 10 µM, 24 h
Protocol: Total DNMT activity was measured in the colon cancer cell line HCT-116. The assay was performed using the EpiQuick^TM DNA Methyltransferase Activity/Inhibition Assay Kit (Epigentek, Brooklyn, NY, USA). […] Assays were performed three times in triplicate.

[3] = 55 cell lines tested for both compounds

## Nc1ncn([C@@H]2O[C@H](CO)[C@@H](O)C2(F)F)c(=O)n1 [NUC013, 5-aza-2′,2′-difluroro deoxycytidine]
HT29
  Growth (%) at 10 µM: 70.09%
OVCAR-3
  Growth (%) at 10 µM: 70.56%
A498
  Growth (%) at 10 µM: 38.04%
MDA-MB-231
  Growth (%) at 10 µM: 79.98%
UO-31
  Growth (%) at 10 µM: 39.00%
NCI-H322M
  Growth (%) at 10 µM: 70.00%
PC-3
  Growth (%) at 10 µM: 63.57%
OVCAR-4
  Growth (%) at 10 µM: 94.88%
HOP-92
  Growth (%) at 10 µM: 34.34%
OVCAR-5
  Growth (%) at 10 µM: 86.95%
ACHN
  Growth (%) at 10 µM: 7.28%
OVCAR-8
  Growth (%) at 10 µM: 49.95%
HCC-2998
  Growth (%) at 10 µM: 60.44%
CCRF-CEM
  Growth (%) at 10 µM: 23.67%
A549/ATCC
  Growth (%) at 10 µM: 37.91%
NCI 60 cell line panel; [3]
  Number of cell lines with growth inhibition at 10 µM >50%: 24
  Number of cell lines with growth inhibition at 10 µM ≤50%: 31
NCI 60 cell line panel; TP53 (Null/Mutant) cell lines
  Number of cell lines with growth inhibition at 10 µM >50%: 13
  Number of cell lines with growth inhibition at 10 µM ≤50%: 27
NCI 60 cell line panel; TP53 (WT) cell lines
  Number of cell lines with growth inhibition at 10 µM >50%: 11
  Number of cell lines with growth inhibition at 10 µM ≤50%: 4
SK-OV-3
  Growth (%) at 10 µM: 71.09%
THP-1 cells
  morphologic changes: morphologic changes suggestive of cell differentiation
HCT-15
  Growth (%) at 10 µM: 52.19%
[1]
  GI50: 4.54 µM
SK-MEL-2
  Growth (%) at 10 µM: 104.47%
MOLT-4
  Growth (%) at 10 µM: 35.63%
LOX IMVI
  Growth (%) at 10 µM: 34.53%
M14
  Growth (%) at 10 µM: 15.55%
NCI-H522
  Growth (%) at 10 µM: 86.91%
[2]
  difference in MTD versus decitabine: greater than 24 fold
786-0
  Growth (%) at 10 µM: 26.29%
BT-549
  Growth (%) at 10 µM: 53.63%
SNB-75
  Growth (%) at 10 µM: 64.95%
MDA-MB-435
  Growth (%) at 10 µM: 53.04%
NCI/ADR-RES
  Growth (%) at 10 µM: 42.13%
SNB-19
  Growth (%) at 10 µM: 58.88%
SF-295
  Growth (%) at 10 µM: 77.93%
In vivo
  MTD at 3 weeks: > 120 mg/kg
CAKI-1
  Growth (%) at 10 µM: 27.86%
SW-620
  Growth (%) at 10 µM: 51.21%
Total DNMT
  inhibition of total DNMT: 48.5%
